Source: patent publication US10842807B2, “Methods of treating neurodegenerative disorders comprising DNA methyltransferase inhibitors” (Washington University, priority 2016, dated 2020)
Entries after “also recorded” stand apart in the source; their conditions may differ.

Key:
Assay type in all cases: cell-based, mouse
[1] = tested on: Htt-72Q-expressing primary cortical neurons; assay: MTS cell viability assay in Htt-expressing primary cortical neurons; conditions: for viability of Htt-72Q-expressing neurons (MTS assay): DIV 5 cortical neurons transduced with Htt lentivirus, treated with drug or DMSO (=0 μM), MTS at DIV 14, vs. Htt-72Q (0 μM)
Description: Mouse primary cortical and striatal neurons from embryonic day (E) 15.5 Swiss Webster mouse fetuses (Taconic) were first plated in the minimal essential medium (MEM) containing 10% FBS, 0.45% glucose, 1 mM sodium pyruvate, 2 mM glutamine, 20 U/ml penicillin and 20 μg/ml streptomycin, for 3 h and then maintained in serum-free Neurobasal medium (Life Technologies) containing NeuroCult™ SM1 neuronal supplement ([…] Technologies), 0.5 mM glutamine and 25 μM glutamate for the first 3 d in a humidified incubator (37° C. in 5% CO2). Half of the medium was replaced with Neurobasal medium with SM1 and 0.5 mM glutamine every 3 days. Primary cortical neurons plated on 96-well flat clear bottom black plates (Corning #3904) at 4×10^4 cells/well were infected with Htt exon1 expression lentivirus (Htt-25Q or Htt-72Q) or control empty vector lentivirus at 5 days in vitro (DIV 5). Primary striatal neurons plated on 96-well plates at 1×10^5 cells/well were infected with Htt exon1 expression lentivirus at DIV 4. Viral copy number was adjusted for transduction of neurons on the basis of titer measured using the Lenti-X qRT-PCR titration kit (Clontech), and equal numbers of viral particles of Htt-25Q and Htt-72Q expressing lentiviruses were used for transduction. For the experiments to test effects of DNMT inhibitors, neurons were treated with inhibitors six hours after Htt lentiviral infection. One half of the media was changed every 3 days with media containing new drug. In knockdown experiments in Htt-expressing neurons, primary cortical neurons were cotransduced with Htt-expressing lentivirus and Dnmt shRNA or control shRNA lentivirus at DIV 5. pLKO.1-TRC1-luciferase (Luci) and pLKO.1-TRC2-LacZ were used as control for RNAi with pLKO.1-TRC1-Dnmt3a and pLKO.1-TRC2-Dnmt1, respectively. Lentiviral particles were prepared by transfecting 293LE cells with the lentiviral plasmid of interest along with packaging plasmid psPAX2 and envelope plasmid pCMV-SVG as described previously^86. Four days after transfection, viruses in the conditioned media were collected and purified using Lenti-X Concentrator (Clontech). Primary cortical neurons from BACHD mouse embryos (E15.5) were individually plated into separate wells and treated at DIV 4 with decitabine or vehicle for 3.5 days.

[2] = tested on: Bdnf exon IV, VI, and IX transcripts; assay: qRT-PCR of Bdnf exon transcripts in Htt-72Q cortical neurons; conditions: Htt-72Q-expressing cortical neurons; vs. Htt-72Q plus vehicle
Description: RNA was harvested 5 days later and subjected to qRT-PCR for total Bdnf (coding exon IX) using β-actin and 18S rRNA as reference genes. […] FIG. 3C depicts the schematic of the mouse Bdnf locus and the relative RNA levels of the Bdnf exons. White boxes, non-coding exons; gray box, coding exon. qRT-PCR was performed as in using exon-specific Bdnf primers. […] (FIG. 3G, FIG. 3H) Cortical neurons were co-transduced with lenti viruses expressing Htt and indicated shRNA and processed as in (FIG. 3C). […] (FIG. 3I) Primary cortical neurons from BACHD mice were treated with decitabine (0.2 μM) or vehicle for 3.5 days. qRT-PCR was performed using β-actin as a reference gene. […] Data are presented as mean+SEM.
Mouse primary cortical and striatal neurons from embryonic day (E) 15.5 Swiss Webster mouse fetuses (Taconic) were first plated in the minimal essential medium (MEM) containing 10% FBS, 0.45% glucose, 1 mM sodium pyruvate, 2 mM glutamine, 20 U/ml penicillin and 20 μg/ml streptomycin, for 3 h and then maintained in serum-free Neurobasal medium (Life Technologies) containing NeuroCult™ SM1 neuronal supplement ([…] Technologies), 0.5 mM glutamine and 25 μM glutamate for the first 3 d in a humidified incubator (37° C. in 5% CO2). Half of the medium was replaced with Neurobasal medium with SM1 and 0.5 mM glutamine every 3 days.

[3] = tested on: Htt-72Q-expressing primary striatal neurons; assay: Neurofilament (NF) immunofluorescence, neurite degeneration in striatal neurons; conditions: DIV 4 striatal neurons transduced, fixed seven days later; vs. Htt-72Q (0 μM)
Description: (§1) Mouse primary cortical and striatal neurons from embryonic day (E) 15.5 Swiss Webster mouse fetuses (Taconic) were first plated in the minimal essential medium (MEM) containing 10% FBS, 0.45% glucose, 1 mM sodium pyruvate, 2 mM glutamine, 20 U/ml penicillin and 20 μg/ml streptomycin, for 3 h and then maintained in serum-free Neurobasal medium (Life Technologies) containing NeuroCult™ SM1 neuronal supplement ([…] Technologies), 0.5 mM glutamine and 25 μM glutamate for the first 3 d in a humidified incubator (37° C. in 5% CO2). Half of the medium was replaced with Neurobasal medium with SM1 and 0.5 mM glutamine every 3 days. Primary cortical neurons plated on 96-well flat clear bottom black plates (Corning #3904) at 4×10^4 cells/well were infected with Htt exon1 expression lentivirus (Htt-25Q or Htt-72Q) or control empty vector lentivirus at 5 days in vitro (DIV 5). Primary striatal neurons plated on 96-well plates at 1×10^5 cells/well were infected with Htt exon1 expression lentivirus at DIV 4. Viral copy number was adjusted for transduction of neurons on the basis of titer measured using the Lenti-X qRT-PCR titration kit (Clontech), and equal numbers of viral particles of Htt-25Q and Htt-72Q expressing lentiviruses were used for transduction. […]
(§2) For the measurement of neurofilament (NF) immunofluorescence intensity, cortical and striatal neurons cultured in a 96-well plate were fixed in 4% paraformaldehyde (PFA) in PBS for 20 min nine and seven days after Htt lentiviral infection, respectively, permeabilized with 0.1% Triton X-100 in PBS for 15 min at room temperature, and subjected to indirect immunofluorescence with anti-NF (2H3) primary antibody and Alexa Fluor 568-conjugated goat anti-mouse IgG secondary antibody (Life Technologies). […] Following image background subtraction, the NF immunofluorescence intensity was quantified using an ImageJ-based macro. Image capture and quantification of Htt (EM48) immunofluorescence intensity were performed as described for those of NF. […] About 300 nuclei from three random fields in a well were counted. […]

[4] = tested on: Htt-72Q-expressing primary cortical neurons; assay: Neurofilament (NF) immunofluorescence, neurite degeneration in cortical neurons; conditions: fixed at DIV 14; vs. Htt-72Q (0 μM)
Description: as §1, §2

[5] = Htt-72Q cortical neurons, MTS assay (FIG. 1B)

Structure (SMILES): Nc1nc(=O)n([C@H]2C[C@H](O)[C@@H](CO)O2)cc1F [FdCyd, 5-fluoro-2′-deoxycytidine]
- viability of Htt-72Q-expressing neurons (MTS assay) [1]: increased the viability of Htt-72Q-expressing neurons
- expression of Bdnf exon IV, VI, and IX transcripts [2]: increased the expression of Bdnf exon IV, VI, and IX transcripts
- mutant Htt-induced neurite degeneration (NF immunofluorescence intensity), striatal neurons [3]: protected neurons from mutant Htt-induced neurite degeneration
- Htt-72Q-induced neurite degeneration (NF immunofluorescence intensity), cortical neurons [4]: protected neurons from Htt-72Q-induced neurite degeneration

Structure (SMILES): Nc1ncn([C@H]2C[C@H](O)[C@@H](CO)O2)c(=O)n1 [decitabine, 5-aza-2′-deoxycytidine]
- viability of Htt-72Q-expressing neurons (MTS assay) [1]: increased the viability of Htt-72Q-expressing neurons; also recorded: increased the viability of mutant Htt-expressing neurons
- concentration giving nearly full protection [1, 5]: 0.2 µM
- lowest concentration with significant neuroprotection [1, 5]: 0.02 µM
- expression of Bdnf exon IV, VI, and IX transcripts [2]: increased the expression of Bdnf exon IV, VI, and IX transcripts
- mutant Htt-induced neurite degeneration (NF immunofluorescence intensity), striatal neurons [3]: protected neurons from mutant Htt-induced neurite degeneration
- Htt-72Q-induced neurite degeneration (NF immunofluorescence intensity), cortical neurons [4]: blocked Htt-72Q-induced neurite degeneration
